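The compound was tested at five concentrations on cells cultured in 96-well plates, with a 48-hour exposure period. GI50 = concentration required for 50% inhibition of growth. At the TGI there is no net growth.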
Columns and labels:
Assay in all cases: inhibition of tumour cell growth, NCI panel, 48 h
NCI-H522 lung = system: NCI-H522 lung
ACHN renal = system: ACHN renal
HCT-116 colon = system: HCT-116 colon
OVCAR-5 ovarian = system: OVCAR-5 ovarian
SNB-75 CNS = system: SNB-75 CNS
T-47D breast = system: T-47D breast
NCI/ADR-RES ovarian = system: NCI/ADR-RES ovarian
EKVX NSCLC = system: EKVX NSCLC
MCF7 breast = system: MCF7 breast
MALME-3M melanoma = system: MALME-3M melanoma
UACC-257 melanoma = system: UACC-257 melanoma

SMILES | TGI (NCI-H522 lung) [µM] | TGI (ACHN renal) [µM] | TGI (HCT-116 colon) [µM] | TGI (OVCAR-5 ovarian) [µM] | TGI (SNB-75 CNS) [µM] | TGI (T-47D breast) [µM] | TGI (NCI/ADR-RES ovarian) [µM] | TGI (EKVX NSCLC) [µM] | TGI (MCF7 breast) [µM] | TGI (MALME-3M melanoma) [µM] | TGI (UACC-257 melanoma) [µM] | GI50 (NCI-H522 lung) [µM] | GI50 (ACHN renal) [µM] | GI50 (HCT-116 colon) [µM] | GI50 (UACC-257 melanoma) [µM] | GI50 (EKVX NSCLC) [µM] | GI50 (MCF7 breast) [µM] | GI50 (OVCAR-5 ovarian) [µM] | GI50 (T-47D breast) [µM] | GI50 (NCI/ADR-RES ovarian) [µM]
N#CCCC1C(C#N)C2(Cl)CC1(Cl)C(Cl)=C2Cl (centres undefined) | > 10 | > 10 | > 10 | > 10 | > 10 | > 10 | > 10 | > 10 | > 10 | > 10 | – | – | – | – | – | – | – | – | – | –
ClCCN1CCC2(CC1)SSC1(CCN(CCCl)CC1)S2 | – | > 100 | > 100 | 72 | > 100 | – | > 100 | – | 39.6 | 73.6 | > 100 | – | – | – | – | – | – | – | – | –
CC1CCC(n2c3cnccc3c3cnc(Nc4ccc5c(n4)CCN(C(=O)CO)C5)nc32)CC1 (centres undefined) | > 100 | > 100 | > 100 | – | – | – | – | > 100 | > 100 | – | > 100 | > 100 | 0.469 | 0.462 | > 100 | > 100 | 0.127 | – | – | –
O=C1c2ccccc2-c2c1c1ccccc1c(=O)n2CCNCCNCCNCCn1c2c(c3ccccc3c1=O)C(=O)c1ccccc1-2 | – | 0.555 | > 100 | – | – | > 100 | > 54.9 | 2.81 | 0.298 | – | – | – | 0.0536 | 0.111 | – | 1.28 | 0.0329 | 0.449 | 2.95 | 3.9
Cc1ccc(-c2n[nH]c(=O)n2N2C(=O)c3ccccc3C2=O)cc1 | > 100 | > 100 | > 100 | > 100 | > 100 | > 100 | > 100 | – | > 100 | > 100 | > 100 | – | – | – | – | – | – | – | – | –
CC(C)(C)OC(=O)NCCCCC1NC(=O)[C@@H]2Cc3c([nH]c4ccccc34)C(C3CCCCC3)N2C1=O (some centres undefined) | > 100 | > 100 | > 100 | > 100 | – | > 100 | > 100 | > 100 | > 100 | > 100 | > 100 | – | – | – | – | – | – | – | – | –
COc1ccc2c(c1)/C(=C/CCN(C)C)c1ccccc1S2 | – | > 100 | > 100 | – | > 100 | > 100 | > 100 | – | – | – | > 100 | – | – | – | – | – | – | – | – | –
N#CC1(C#N)N[C@@H](c2ccsc2)[C@H]2C(=O)N(c3ccccc3)C(=O)[C@H]21 | > 100 | > 100 | > 100 | – | > 100 | > 100 | > 100 | > 100 | – | > 100 | > 100 | – | – | – | – | – | – | – | – | –
CC(=O)NC(Cc1ccc(O)cc1)C(=O)O (centres undefined) | > 100 | > 100 | > 100 | > 100 | – | > 100 | > 100 | > 100 | > 100 | > 100 | > 100 | – | – | – | – | – | – | – | – | –
NC(=O)NCCCC(NC(=O)OCCCCn1ccc(=O)[nH]c1=O)C(=O)O (centres undefined) | – | > 100 | > 100 | > 100 | > 100 | > 100 | > 100 | > 100 | > 100 | – | > 100 | – | – | – | – | – | – | – | – | –
C[C@]12CCC(O)CC1=CC[C@@H]1[C@@H]2CC[C@]2(C)C(=O)[C@H](n3ccnc3)C[C@@H]12 (some centres undefined) | > 100 | > 100 | > 100 | > 100 | > 100 | – | > 100 | > 100 | > 100 | > 100 | > 100 | – | – | – | – | – | – | – | – | –
CC(C)CCS(=O)(=O)OCCCCOS(=O)(=O)CCC(C)C | > 100 | > 100 | > 100 | – | > 100 | – | – | > 100 | – | > 100 | > 100 | – | – | – | – | – | – | – | – | –
NC(N)=N/N=C/c1c(-c2ccc(N)cc2)nc2sccn12 | 76 | 77.9 | 59.2 | 46.8 | – | 90.3 | > 100 | 61.1 | > 100 | > 100 | > 100 | – | – | – | – | – | – | – | – | –
Nc1nc(Cl)cc(NCC2(CO)CC(=O)C2)n1 | > 100 | > 100 | > 100 | > 100 | – | > 100 | > 100 | > 100 | > 100 | > 100 | > 100 | – | – | – | – | – | – | – | – | –
O=C(N/N=C(/COc1ccc(Cl)cc1)N=Cc1ccncc1)c1ccncc1 | > 100 | > 100 | > 100 | > 100 | – | > 100 | > 100 | > 100 | > 100 | > 100 | > 100 | – | – | – | – | – | – | – | – | –
C[C@@H](NC(=O)[C@@H]1C[C@]1(C)COC(=O)c1cc([N+](=O)[O-])cc([N+](=O)[O-])c1)c1cccc2ccccc12 | – | > 100 | > 100 | > 100 | > 100 | > 100 | > 100 | > 100 | > 100 | 51 | > 100 | – | – | – | – | – | – | – | – | –
[N-]=[N+]=NC[C@H]1OCO[C@H](CN=[N+]=[N-])[C@@H](OCCOCCCl)[C@@H]1OCCOCCCl | > 100 | – | > 100 | – | > 100 | > 100 | > 100 | > 100 | > 100 | > 100 | > 100 | – | – | – | – | – | – | – | – | –
c1ccc(N=c2sc3ccccc3nc2Nc2ccccc2)cc1 | > 100 | > 100 | > 100 | > 100 | > 100 | > 100 | > 100 | > 100 | – | > 100 | > 100 | – | – | – | – | – | – | – | – | –
C=C(C)C(=O)OC1C/C(CO)=C\C(O)C/C(C)=C/C2OC(=O)C(=C)C21 (centres undefined) | 30.3 | 48.4 | 37.1 | > 100 | > 100 | – | – | 69.1 | – | 39 | – | – | – | – | – | – | – | – | – | –
Cc1ccc(N=NC(=Nc2ccccc2)c2ccc(N(CCC#N)CCC#N)cc2)cc1 | 45.2 | > 100 | > 100 | > 100 | > 100 | > 100 | > 100 | > 100 | 79.2 | – | 54 | – | – | – | – | – | – | – | – | –
CN1C(=O)C2CCC(=O)N2c2cccnc21 (centres undefined) | > 100 | > 100 | > 100 | – | – | > 100 | > 100 | > 100 | > 100 | > 100 | > 100 | – | – | – | – | – | – | – | – | –
